Reference: patent US20180169085A1, “Combination Therapy for Hemorrhagic Injury” (Augusta University Reserch Institute, Inc., priority 2016, published 2018)
Entries after “also recorded” stand apart in the source; their conditions may differ.

Columns and labels:
[1] = system: rats subjected to hemorrhagic injury (HI); test: Survival after hemorrhagic injury without resuscitation; type: in vivo, rat; details: p<0.05 versus HI+Veh; for survival time: FIG. 4
Source text: Male Sprague Dawley rats (250-350 g) were obtained from Charles River Laboratory (Wilmington, Mass., USA). […] All animals were housed in Augusta University animal facility during the experiments.
The animals were fasted overnight (water allowed ad libitum) prior to the sham or hemorrhagic injury (HI) procedure. […] Femoral vein was cannulated to administer fluids. Surgical sites were bathed with bupivacaine. Sham animals were not subjected to bleeding or resuscitation. Upon awakening, the animals in HI groups were bled rapidly within the first 10 min to a MAP of 40±5 mmHg. The bleeding was continued for 45 min, maintaining the low MAP, until 60% of circulatory blood volume was withdrawn. The animals were maintained in the state of shock by maintaining MAP at 40±5 for another 45 min. During this time not more than 40% of the shed blood volume in the form of Ringer lactate was given to maintain the blood pressure. Resuscitation was performed with Ringer lactate for one hour on animals in the respective groups. Vehicle (dimethyl sulfoxide [DMSO]; 120 μL/mouse) or drug was administered at 10 min from the onset of resuscitation or immediately after shock period when there was no resuscitation.
Rats were subjected to HI and Veh, RSV or SRT1720 administered (n=5-6). (RSV: 10 mg/Kg body weight; SRT1720: 2 mg/Kg body weight.

[2] = system: rats subjected to hemorrhagic injury (HI); test: Cardiac function (dP/dt) after hemorrhagic injury in rat model; type: in vivo; details: RSV treatment vs HI+Veh, n=4-6, p<0.05 vs sham, FIG. 1
Source text: (§1) Male Sprague Dawley rats (250-350 g) were obtained from Charles River Laboratory (Wilmington, Mass., USA). The experiments performed in this study including surgical procedures were approved by the Institutional Animal Care and Use Committee (IACUC) at Augusta University. All animals were housed in Augusta University animal facility during the experiments. The animals were fasted overnight (water allowed ad libitum) prior to the sham or hemorrhagic injury (HI) procedure. Hemorrhagic procedure was as described before with some modification (Jian, B. et al., Mol. Med., 18:209-14 (2012). The animals were anesthetized with 2.5% isoflurane (Henry Schein, Dublin, Ohio, USA) and were placed on Plexiglas plate in a supine position. Isoflurane was administered in oxygen using an anesthetic vaporizer. Midline laparotomy (5 cm) was performed in both sham and HI animals to induce soft tissue trauma. Incision was closed aseptically in two layers with sutures. Two femoral arteries and one femoral vein were cannulated (PE-50 tubing), one artery was hooked up to a Blood Pressure Analyzer (Digi-Med; Micro-Med Inc., Louisville, Ky., USA) to monitor mean arterial pressure (MAP) and bleeding was performed through the other artery. Femoral vein was cannulated to administer fluids. Surgical sites were bathed with bupivacaine. Sham animals were not subjected to bleeding or resuscitation. […]

[3] = system: rats subjected to hemorrhagic injury (HI); test: 10-day survival study after hemorrhagic injury with resuscitation; type: in vivo, rat
Source text: Male Sprague Dawley rats (250-350 g) were obtained from Charles River Laboratory (Wilmington, Mass., USA). The experiments performed in this study including surgical procedures were approved by the Institutional Animal Care and Use Committee (IACUC) at Augusta University. All animals were housed in Augusta University animal facility during the experiments.
as §1, with “The” for “Male Sprague Dawley rats (250-350 g) were obtained from Charles River Laboratory (Wilmington, Mass., USA). The experiments performed in this study including surgical procedures were approved by the Institutional Animal Care and Use Committee (IACUC) at Augusta University. All animals were housed in Augusta University animal facility during the experiments. The”

O=C(O)c1cccnc1 [niacin, nicotinic acid]
survival ([1]; niacin 1, 5, 10 mg/kg, without resuscitation, all curves, FIG. 6): prolonged survival

O=C(Nc1ccccc1-c1cn2c(CN3CCNCC3)csc2n1)c1cnc2ccccc2n1 [SRT1720]
survival time ([1]; SRT1720 2 mg/Kg body weight, without resuscitation): Prolong Life

Oc1ccc(/C=C/c2cc(O)cc(O)c2)cc1 [resveratrol, 3,5,4-tribydroxystilbene]
+dp/dt and −dp/dt [2]: restored | mean weight gain ([3]; 10-day survival study, RSV 10 mg/kg, data not shown): significantly improved | mortality ([3]; 10-day survival, RSV 10 mg/kg body weight along with resuscitation fluid, p<0.05, FIG. 3): reduce mortality significantly; also recorded: significantly reduced | survival time ([1]; RSV 10 mg/Kg body weight, absence of resuscitation): survived for a significantly longer period of time
